Measurements published in US20020132845A1, “Compositions and methods for the prevention and treatment of tissue ischemia” (priority 2000, published 2002).
“Also recorded” adds a separate entry of the source.

Columns and labels:
[1] = system: transient focal cerebral ischemia induced by Middle Cerebral Artery Occlusion (MCAO); experiment: Animal cerebral infarct assay: two-hour Middle Cerebral Artery Occlusion (MCAO) with reperfusion; format: in vivo, rat; conditions: for total infarct volume relative to control animals: administered (I.V.) at the time of MCAO; for total ischemic damage relative to control animals: I.V. at the time of MCAO; for reduction of infarct volume: administered at reperfusion; for tissue edema relative to controls / total ischemic damage relative to controls / total infarct volume relative to controls: administered at the time of reperfusion; for edema relative to control animals: at the time of MCAO
Text: This assay is used to assess the efficacy of the test agents in protecting the brain against necrosis following cerebral ischemia induced in rats. Middle Cerebral Artery Occlusion (MCAO) is a widely used technique to induce transient focal cerebral ischemia in animal models. […] Furthermore, this model accurately represents the involvement of middle cerebral artery (MCA), the most affected vessel in human stroke, and also allows reperfusion as it happens in humans. MCAO by a two-hour occlusion is used to produce the maximum size of cortical infarction without increased mortality at twenty-four hours. Male Wistar rats (Hadan, Ind.) weighing 300-350 g were allowed free access to water and commercial rodent diet under standard laboratory conditions. The room temperature was maintained at 20-23° C. and room illumination was on a 12/12-hour light/dark cycle. The rats were acclimatized to the laboratory environment 5 to 7 days prior to the study. Before surgery, the animals were fasted overnight, but had free access to water. The rats were anesthetized with 3.0% isoflurane (Aerrane, Front Dodge, Iowa) in […] and the animal's neck was shaved and sterilized before the operation. The animals were subjected to two hours MCAO using a modified intraluminal filament technique. A midline incision on the ventral part of the neck was made to expose external and internal carotid arteries. The right external and common carotid arteries were ligated by a suture (silk 5/0, Carlisle Laboratories, Farmers Branch, Tex.) and the right internal artery was temporarily ligated by a microvascular clip (Fine Science Tool Inc., Foster City, Calif.). A small incision was made in the common carotid artery and a nylon filament, its tip rounded by heating, prepared from a fishing line (Stren Fishing Lines, Wilmington, Del.) was inserted from the right common carotid artery. The filament was advanced into the internal carotid artery 18-20 mm from the point of bifurcation of internal and external arteries and a suture was tightly ligated around the filament. Two hours post occlusion, the animals were re-anesthetized to allow reperfusion for the remaining of the experiment by removal of the filament. The anesthetized animal were placed on a stereotaxic apparatus (Harvard Apparatus, S. Natick, Mass.). Anesthesia was maintained by inhalation of 3.0% isoflurane in […] throughout the entire procedure. The scalp was shaved and sterilized prior to surgery. A midline sagittal incision about 3 cm long was made slightly behind the eyes to expose the skull. The skull was scraped with a rounded end spatula to remove periosteal connective tissue. A bur hole was placed 1.5 mm lateral, 1 mm posterior to the left of the bregma to mark the left lateral ventricle. A brain infusion cannula (ALZET CO. Palo Alto, Calif.) was inserted 4 mm deep into the hole. The desired depth was adjusted by attaching spacers to the cannula. The cannula was attached to a 4-cm silastic catheter (Helix Medical Inc.) fixed in place with dental cement (Ketac-cement, Norristown, Pa.). The catheter was either attached to a primed osmotic pump placed subcutaneously between the shoulder blades for permanent infusion or to a syringe for a short infusion. Anesthesia was maintained by inhalation of 3.0% isoflurane in […] throughout the entire procedure. The exterior site of the right femoral vein was shaved and sterilized prior to surgery. A 3 cm incision was made in the right groin region and the femoral vein was isolated. A small incision was made on the femoral vein temporarily ligated with a microvascular clip to introduce and advance a polyethylene (PE-50) catheter (Becton. Dickinson and Co., Sparks, Md.). The catheter was secured in place with suture (silk 5/0, Carlisle Laboratories, Farmers Branch, Tex.). The other end of the catheter was attached to a syringe filled with the heparinized saline for the bolus injection. […]

[2] = Experiments performed in support of the invention: synergy of hesperetin with tocopherols (test not specified)
[3] = system: congestive heart failure (CHF); experiment: Model of congestive heart failure: permanent ligation of the left coronary artery (Example 6); format: in vivo, rat; conditions: after permanent ligation of the left coronary artery
[4] = oral gavage pre-MCAO, dose not given
[5] = listed as gamma-tocopherol enriched composition
[6] = listed as gamma-tocopherol enriched tocopherol composition
[7] = oral gavage pre-MCAO (3 hours), 10 mg/kg
[8] = listed as gamma-tocopherol metabolite enriched composition

Cc1c(C)c2c(c(C)c1O)CC[C@@](C)(CCC[C@H](C)CCC[C@H](C)CCCC(C)C)O2 (relative stereo) [alpha-tocopherol, [2R-2R*(4R*,8R*)]-3,4-dihydro-2,5,7,8-tetramethyl-2-(4,8,12-trimethyltridecyl)-2H-1-benzopyran-6-ol, reference compound]
reduction of infarct size ([1]; 6 mg/kg at MCAO (IV)): 42%
reduction of infarct size [1, 4]: 43%

Cc1cc(O)cc2c1O[C@](C)(CCC[C@H](C)CCC[C@H](C)CCCC(C)C)CC2 (relative stereo) [delta-tocopherol, [2R-[2R*(4R*,8R*)]]-3,4-dihydro-2,8-dimethyl-2-(4,8,12-trimethyltridecyl)-2H-1-benzo-pyran-6-ol]
reduction of infarct size ([1]; IV, 0.60 mg/kg): 52%
total infarct volume relative to control animals [1]: reduce total infarct size
reduction of infarct size [1, 4]: 48%
reduction of total infarct volume compared with alpha-tocopherol ([1]; rat, in vivo): more effective

Cc1c(O)cc2c(c1C)OC(C)(CCCC(C)CCCC(C)CCCC(C)C)CC2 (stereo not shown) [gamma-tocopherol, 3,4-dihydro-2,7,8-trimethyl-2-(4,8,12-trimethyltridecyl)-2H-1-benzyopyran-6-ol]
reduction of infarct size ([1]; 6 mg/kg at MCAO (IV)): 82%
total ischemic damage relative to control animals [1]: significantly reduced
reduction of infarct size ([1]; IV, 0.6 mg/kg, at MCAO): 81%
total infarct volume relative to control animals [1, 5]: reduce total infarct size
total infarct volume relative to control animals [1, 6]: significantly reduced; also recorded: reduce total infarct
reduction of infarct volume ([1]; 10 mg/kg): 70%
tissue edema relative to controls [1]: reduction
total ischemic damage relative to controls [1]: reduction
total infarct volume relative to controls [1, 5]: reduce total infarct size; also recorded: reduction
total infarct volume relative to controls [1, 6]: reduce total infarct
reduction of tissue edema compared with alpha- or delta-tocopherol ([1]; at the same concentration): more effective
reduction of total infarct volume compared with alpha- or delta-tocopherol ([1]; at the same concentration): more effective
edema relative to control animals [1]: significantly reduced
mean reduction of infarct volumes ([1]; intraperitoneal, 10-20 mg/kg, at MCAO or 3 hours post-reperfusion): 20-57%
reduction of infarct size / infarct volume ([1]; oral gavage 3 hours pre-MCAO, 4 mg/kg): 53%
reduction of infarct size [1, 7]: 77%

COc1ccc([C@@H]2CC(=O)c3c(O)cc(O)cc3O2)cc1O [hesperetin, (S)-2,3-dihydro-5,7-dihydroxy-2-(3-hydroxy-4-methoxyphenyl)-4H-1benzopyran-4-one]
synergy with gamma-tocopherol and delta-tocopherol [2]: act synergistically

Cc1cc(O)c(C)c2c1OC(C)(CCCC(C)CCCC(C)CCCC(C)C)CC2 (stereo not drawn) [beta-tocopherol, 3,4-dihydro-2,5,8-trimethyl-2-(4,8,12-trimethyltridecyl)-2H-1-benzopyran-6-ol]
total infarct size ([1]; gavage, three hours pre-MCAO): reduce total infarct size
reduction of infarct size [1, 7]: 76%

Cc1c(O)cc2c(c1C)OC(C)(CCC(=O)O)CC2 (stereo not shown) [gamma-CEHC, 6-hydroxy-2,7,8-trimethylchroman-2-propanoic acid]
total ischemic damage relative to control animals [1]: significantly reduced
decrease of neuronal damage ([1]; IV at MCAO, drug range 0.1-5 mg/kg): 50-65%
total infarct volume relative to control animals [1]: reduce total infarct size; also recorded: significantly reduced
total infarct volume relative to control animals [1, 8]: reduce total infarct
reduction of infarct volume ([1]; 10 mg/kg): 52%
tissue edema relative to controls [1]: reduction
total infarct volume relative to controls [1]: reduce total infarct size
total ischemic damage relative to controls [1]: reduction
total infarct volume relative to controls [1, 8]: reduction; also recorded: reduce total infarct
edema relative to control animals [1]: reduced tissue edema

C[C@H](CS)C(=O)N1CCC[C@H]1C(=O)O [captopril, 1-[(2S)-3-mercapto-2-methylpropionyl]-L-proline]
heart weight [3]: reduced heart weight
left ventricular systolic pressure (LVSP) [3]: reduced LVSP
